Measured values: ChEMBL document CHEMBL5500399, “Design, Synthesis, and Biological Evaluation of 1,2,4-Oxadiazole Derivatives Containing an Aryl Carboxylic Acid Moiety as Potent Sarbecovirus Papain-like Protease Inhibitors” (J Med Chem, 2024)
The source made the active and inactive calls. No cut-off for these calls is given here.

How the values were obtained:
[1] = target: T1, Replicase polyprotein 1ab (Severe acute respiratory syndrome coronavirus 2, UniProt P0DTD1); test: Inhibition of SARS-CoV2 PLpro using Z-RLRGG-AMC as substrate preincubated for 10 mins followed by substrate addition and measured after 20 sec shaking for 30 mins by time-resolved fluorescence assay
[2] = Metabolic stability in human liver microsomes assessed as half life at 1 uM preincubated for 5 mins followed by NADPH addition and measured after 30 mins by LC-MS/MS analysis; format: ADME, Microsome; conditions: time 35 min
[3] = Metabolic stability in CD-1 mouse liver microsomes assessed as half life at 1 uM preincubated for 5 mins followed by NADPH addition and measured after 30 mins by LC-MS/MS analysis; format: ADME, Microsome; conditions: time 35 min
[4] = Metabolic stability in human liver microsomes assessed as compound remaining at 1 uM preincubated for 5 mins followed by NADPH addition and measured after 30 mins by LC-MS/MS analysis; format: ADME, Microsome; conditions: read-out: Stability
[5] = Metabolic stability in CD-1 mouse liver microsomes assessed as compound remaining at 1 uM preincubated for 5 mins followed by NADPH addition and measured after 30 mins by LC-MS/MS analysis; format: ADME, Microsome; conditions: read-out: Stability
[6] = Half life in BALB/c mouse at 50 mg/kg, po measured upto 48 hrs by LC-MS/MS analysis; format: ADME, organism-based; conditions: in vivo
[7] = Tmax in BALB/c mouse at 50 mg/kg, po measured upto 48 hrs by LC-MS/MS analysis; format: ADME, organism-based; conditions: in vivo
[8] = Cmax in BALB/c mouse at 50 mg/kg, po measured upto 48 hrs by LC-MS/MS analysis; format: ADME, organism-based; conditions: in vivo
[9] = AUC(0 to t) in BALB/c mouse at 50 mg/kg, po measured upto 48 hrs by LC-MS/MS analysis; format: ADME, organism-based; conditions: in vivo
[10] = AUC(0 to infinity) in BALB/c mouse at 50 mg/kg, po measured upto 48 hrs by LC-MS/MS analysis; format: ADME, organism-based; conditions: in vivo
[11] = MRT(0 to t) in BALB/c mouse at 50 mg/kg, po measured upto 48 hrs by LC-MS/MS analysis; format: ADME, organism-based; conditions: in vivo
[12] = MRT(0 to infinity) in BALB/c mouse at 50 mg/kg, po measured upto 48 hrs by LC-MS/MS analysis; format: ADME, organism-based; conditions: in vivo
[13] = Oral bioavailability in BALB/c mouse at 50 mg/kg measured upto 48 hrs by LC-MS/MS analysis; format: ADME, organism-based; conditions: in vivo
[14] = Half life in BALB/c mouse at 5 mg/kg, iv measured upto 48 hrs by LC-MS/MS analysis; format: ADME, organism-based; conditions: in vivo
[15] = Tmax in BALB/c mouse at 5 mg/kg, iv measured upto 48 hrs by LC-MS/MS analysis; format: ADME, organism-based; conditions: in vivo
[16] = Cmax in BALB/c mouse at 5 mg/kg, iv measured upto 48 hrs by LC-MS/MS analysis; format: ADME, organism-based; conditions: in vivo
[17] = AUC(0 to t) in BALB/c mouse at 5 mg/kg, iv measured upto 48 hrs by LC-MS/MS analysis; format: ADME, organism-based; conditions: in vivo
[18] = AUC(0 to infinity) in BALB/c mouse at 5 mg/kg, iv measured upto 48 hrs by LC-MS/MS analysis; format: ADME, organism-based; conditions: in vivo
[19] = MRT(0 to t) in BALB/c mouse at 5 mg/kg, iv measured upto 48 hrs by LC-MS/MS analysis; format: ADME, organism-based; conditions: in vivo
[20] = MRT(0 to infinity) in BALB/c mouse at 5 mg/kg, iv measured upto 48 hrs by LC-MS/MS analysis; format: ADME, organism-based; conditions: in vivo
[21] = Clearance in BALB/c mouse at 5 mg/kg, iv measured upto 48 hrs by LC-MS/MS analysis; format: ADME, organism-based; conditions: in vivo
[22] = Cytotoxicity against african green monkey Vero E6 cells incubated for 48 hrs; format: toxicity, cell-based, Vero C1008; conditions: chlorocebus sabaeus
[23] = target: T1, Replicase polyprotein 1ab; test: Binding affinity to SARS-CoV2 PLpro by biolayer interferometry analysis
[24] = target: Replicase polyprotein 1ab (Severe acute respiratory syndrome coronavirus 2) (UniProt P0DTD1); test: Inhibition of SARS-CoV2 PLpro cleavage activity using 2Ub-K48 as substrate incubated overnight by SYPRO Ruby staining based SDS-PAGE analysis
[25] = target: Replicase polyprotein 1ab (Severe acute respiratory syndrome coronavirus 2) (UniProt P0DTD1); test: Inhibition of RLRGG binding to SARS-CoV2 PLpro
[26] = system: Severe acute respiratory syndrome-related coronavirus; test: Inhibition of SARS-CoV PLpro using Z-RLRGG-AMC as substrate preincubated for 10 mins followed by substrate addition and measured after 20 sec shaking for 30 mins by time-resolved fluorescence assay
[27] = target: Replicase polyprotein 1ab (Middle East respiratory syndrome-related coronavirus (isolate UnitedKingdom/H123990006/2012) (Betacoronavirus England 1) (Humancoronavirus EMC)) (UniProt K9N7C7); test: Inhibition of MERS-CoV PLpro using Z-RLRGG-AMC as substrate preincubated for 10 mins followed by substrate addition and measured after 20 sec shaking for 30 mins by time-resolved fluorescence assay; conditions: time 40.3 min
[28] = target: Replicase polyprotein 1ab (Severe acute respiratory syndrome coronavirus 2) (UniProt P0DTD1); test: Binding affinity to SARS-CoV2 PLpro assessed as stabilization by measuring increase melting temperature by thermal shift assay
[29] = Metabolic stability in human hepatocytes assessed as half life at 1 uM measured upto 30 mins; format: ADME, cell-based, Hepatocyte
[30] = Metabolic stability in mouse hepatocytes assessed as half life at 1 uM measured upto 30 mins; format: ADME, cell-based, Hepatocyte
[31] = Metabolic stability in human hepatocytes assessed as intrinsic clearance per million cells at 1 uM measured upto 30 mins; format: ADME, cell-based, Hepatocyte; conditions: read-out: CLH
[32] = Metabolic stability in mouse hepatocytes assessed as intrinsic clearance per million cells at 1 uM measured upto 30 mins; format: ADME, cell-based, Hepatocyte; conditions: read-out: CLH
[33] = Metabolic stability in human hepatocytes assessed as compound remaining at 1 uM measured after 30 mins; format: ADME, cell-based, Hepatocyte; conditions: read-out: Stability
[34] = Metabolic stability in mouse hepatocytes assessed as compound remaining at 1 uM measured after 30 mins; format: ADME, cell-based, Hepatocyte; conditions: read-out: Stability
[35] = Metabolic stability in human liver microsomes assessed as half life; format: ADME, Microsome
[36] = Metabolic stability in human liver microsomes assessed as intrinsic clearance; format: ADME, Microsome; conditions: read-out: CLH

Structure (SMILES) | IC50 [1] | half-life at 1 µM [2] | half-life at 1 µM [3] | remaining at 0.5 h, 1 µM [4] | remaining at 0.5 h, 1 µM [5] | half-life [6] | Tmax [7] | Cmax [8] | AUC(0-t) at 48 h [9] | AUC(0-inf) [10] | MRT last at 48 h [11] | MRT inf [12] | bioavailability [13] | half-life [14] | Tmax [15] | Cmax [16] | AUC(0-t) at 48 h [17] | AUC(0-inf) [18] | MRT last at 48 h [19] | CC50 at 48 h [22] | other results
CC(c1nc(-c2ccc(-c3ccc(C(=O)O)s3)cc2)no1)c1cccc2ccccc12 (centres undefined) | 1.8 µM | > 1.55 h | > 1.55 h | 82.1% | 101% | 6.5 h | 0.88 h | 3.67 µg/mL | 17.4 µg·h/mL | 17.5 µg·h/mL | 8.05 h | 8.29 h | 4.8% | 5.8 h | 0.17 h | 14.2 µg/mL | 36.3 µg·h/mL | 36.3 µg·h/mL | 5.04 h | 170 µM | MRT inf [20]: 5.12 h; clearance [21]: 0.141 L/h/kg; Kd [23]: 13.6 µM; inhibition [24]: Active; inhibition [25]: Active; inhibition [26]: Active; inhibition [27]: Active; Activity [28]: Active
Cc1ccc(-c2noc(C(C)c3ccc(-c4ccccc4)c(F)c3)n2)cc1NCc1ccc(C(=O)O)s1 (racemic) | 1 µM | > 1.55 h | > 1.55 h | 101% | 99.1% | 2.53 h | 1.25 h | 10.2 µg/mL | 24.3 µg·h/mL | 24.4 µg·h/mL | 2.19 h | 2.72 h | 39.1% | 4.2 h | 0.05 h | 10.6 µg/mL | 6.21 µg·h/mL | 6.26 µg·h/mL | 2.74 h | 124 µM | MRT inf [20]: 2.96 h; clearance [21]: 0.808 L/h/kg; Kd [23]: 13.6 µM; inhibition [24]: Active; inhibition [25]: Active; inhibition [26]: Active; inhibition [27]: Active
Cc1ccc(N)cc1C(=O)N[C@H](C)c1cccc2ccccc12 | – | – | – | – | – | – | – | – | – | – | – | – | – | – | – | – | – | – | – | 253 µM | half-life at 1 µM [29]: 0.75 h; half-life at 1 µM [30]: 7.6 min; hepatocyte CLint at 1 µM [31]: 15.4 µL/min/1e6 cells; hepatocyte CLint at 1 µM [32]: 91.5 µL/min/1e6 cells; remaining at 0.5 h, 1 µM [33]: 63%; remaining at 0.5 h, 1 µM [34]: 6.4%; half-life [35]: 0.44 h; CLint scaled [36]: 1.62 L/h/kg
